Measurements reported in ChEMBL document CHEMBL2016451, “Antimycobacterial activity of bisbenzylisoquinoline alkaloids from Tiliacora triandra against multidrug-resistant isolates of Mycobacterium tuberculosis” (Bioorg Med Chem Lett, 2012).
Values after ≈ are worked out from the molar mass of the structure shown.

Experiments:
Assay type in all cases: functional
[1] = test system: Mycobacterium tuberculosis; test: Antimycobacterial activity against isoniazid-, rifampin-, streptomycin-resistant Mycobacterium tuberculosis after 16 to 24 hrs by alamar blue assay
[2] = test system: Mycobacterium tuberculosis; test: Antimycobacterial activity against isoniazid-, rifampin-, ofloxacin-, ethambutol-resistant Mycobacterium tuberculosis after 16 to 24 hrs by alamar blue assay
[3] = test system: Mycobacterium tuberculosis; test: Antimycobacterial activity against isoniazid-, rifampin-, streptomycin-, ethambutol-resistant Mycobacterium tuberculosis after 16 to 24 hrs by alamar blue assay
[4] = test system: Mycobacterium tuberculosis; test: Antimycobacterial activity against isoniazid-, rifampin-, ofloxacin-, ethambutol-, streptomycin-resistant Mycobacterium tuberculosis after 16 to 24 hrs by alamar blue assay
[5] = test system: Mycobacterium tuberculosis; test: Antimycobacterial activity against isoniazid-, rifampin-, ofloxacin-, streptomycin-resistant Mycobacterium tuberculosis after 16 to 24 hrs by alamar blue assay
[6] = test system: Mycobacterium tuberculosis; test: Antimycobacterial activity against isoniazid-, rifampin-resistant Mycobacterium tuberculosis after 16 to 24 hrs by alamar blue assay
[7] = test system: Mycobacterium tuberculosis; test: Antimycobacterial activity against isoniazid-, rifampin-, ethambutol-resistant Mycobacterium tuberculosis after 16 to 24 hrs by alamar blue assay
[8] = test system: Mycobacterium tuberculosis; test: Antimycobacterial activity against pyrazinamide-resistant Mycobacterium tuberculosis H37Rv ATCC 35828 after 16 to 24 hrs by alamar blue assay
[9] = test system: Mycobacterium tuberculosis; test: Antimycobacterial activity against ethionamide-resistant Mycobacterium tuberculosis H37Rv ATCC 35830 after 16 to 24 hrs by alamar blue assay

`NNC(=O)c1ccncc1` [ISONIAZID] was tested, and the MIC [1] was at least 2 mg/L, the MIC [2] was at least 2 mg/L and the MIC [3] was at least 2 mg/L. For the same compound, the MIC [4] was at least 2 mg/L, the MIC [5] was at least 2 mg/L and the MIC [6] was at least 2 mg/L. For the same compound, the MIC [7] was at least 2 mg/L.
`COc1ccc2cc1-c1cc(ccc1O)C[C@H]1c3cc4c(cc3CCN1C)Oc1c(OC)cc3c(c1O4)[C@@H](C2)N(C)CC3` [TILIACORINE] showed an MIC [8] of 6.2 mg/L (≈ 10.8 µM) and an MIC [9] of 3.1 mg/L (≈ 5.38 µM).
With `CC[C@@H](CO)NCCN[C@@H](CC)CO` [ETHAMBUTOL] the MIC [1] was at most 2 mg/L, the MIC [2] was at least 8 mg/L and the MIC [3] was at least 8 mg/L. The MIC [4] was at least 8 mg/L, the MIC [5] was at most 2 mg/L and the MIC [6] was at most 2 mg/L. The MIC [7] was at least 8 mg/L.
`COc1ccc2cc1-c1cc(cc(Br)c1O)C[C@H]1c3cc4c(cc3CCN1C)Oc1c(OC)cc3c(c1O4)[C@H](C2)N(C)CC3` was tested, and the MIC [8] was 3.1 mg/L (≈ 4.73 µM) and the MIC [9] was 3.1 mg/L (≈ 4.73 µM).
`CC1COc2c(N3CCN(C)CC3)c(F)cc3c(=O)c(C(=O)O)cn1c23` (stereo not drawn) [OFLOXACIN] showed an MIC [1] of at most 2 mg/L, an MIC [2] of at least 4 mg/L and an MIC [3] of at most 2 mg/L. The MIC [4] was at least 4 mg/L, the MIC [5] was at least 4 mg/L and the MIC [6] was at most 2 mg/L. The MIC [7] was at most 2 mg/L.
`COc1ccc2cc1-c1cc(ccc1O)C[C@H]1c3cc4c(cc3CCN1C)Oc1c(OC)cc3c(c1O4)[C@H](C2)N(C)CC3` [TILIACORININE] gave an MIC [8] of 6.2 mg/L (≈ 10.8 µM) and an MIC [9] of 3.1 mg/L (≈ 5.38 µM).
`COc1ccc2cc1-c1cc(ccc1O)C[C@@H]1NCCc3cc4c(cc31)Oc1c(c(OC)cc3c1[C@H](C2)N(C)CC3)O4` gave an MIC [8] of 6.2 mg/L (≈ 11 µM) and an MIC [9] of 6.2 mg/L (≈ 11 µM).
With `CN[C@@H]1[C@H](O[C@H]2[C@H](O[C@H]3[C@H](O)[C@@H](O)[C@H](N=C(N)N)[C@@H](O)[C@@H]3N=C(N)N)O[C@@H](C)[C@]2(O)C=O)O[C@@H](CO)[C@H](O)[C@H]1O` [STREPTOMYCIN] the MIC [1] was at least 8 mg/L, the MIC [2] was at most 2 mg/L and the MIC [3] was at least 8 mg/L. The MIC [4] was at least 8 mg/L, the MIC [5] was at least 8 mg/L and the MIC [6] was at most 2 mg/L. For the same compound, the MIC [7] was at most 2 mg/L.
With `CO[C@H]1/C=C/O[C@@]2(C)Oc3c(C)c(O)c4c(O)c(c(/C=N/N5CCN(C)CC5)c(O)c4c3C2=O)NC(=O)/C(C)=C\C=C\[C@H](C)[C@H](O)[C@@H](C)[C@@H](O)[C@@H](C)[C@H](OC(C)=O)[C@@H]1C` [RIFAMPIN] the MIC [1] was at least 2 mg/L, the MIC [2] was at least 2 mg/L and the MIC [3] was at least 2 mg/L. It also gave an MIC [4] of at least 2 mg/L, an MIC [5] of at least 2 mg/L and an MIC [6] of at least 2 mg/L. The MIC [7] was at least 2 mg/L.
